{
  "source": "ChEMBL document CHEMBL6153037",
  "about": "“Developing dual-responsive quinolinium prodrugs of 8-hydroxyquinoline by harnessing the dual chelating sites” (Eur J Med Chem, 2025)",
  "key": {"[1]": {"tested_on": "MDA-MB-231", "assay": "Induction of apoptosis in human MDA-MB-231 cells assessed as early apoptotic cells incubated for 24 hrs by Annexin V-FITC/PI staining based flow cytometry (reference value: 1.94 %)", "format": "functional"}, "[2]": {"assay": "Hepatorenal toxicity in ICR mouse assessed as change in AST level at 30 mg/kg, iv measured after 48 hrs", "format": "organism-based", "details": "in vivo"}, "[3]": {"assay": "Hepatorenal toxicity in ICR mouse assessed as change in ALT level at 30 mg/kg, iv measured after 48 hrs", "format": "organism-based", "details": "in vivo"}, "[4]": {"tested_on": "MDA-MB-231", "assay": "Induction of cell cycle arrest in human MDA-MB-231 cells assessed as accumulation at G0/G1 phase by PI staining based flow cytometry (reference value: 43.25 %)", "format": "functional"}, "[5]": {"assay": "Prodrug conversion in PBS at pH 7.4 containing H2O2 assessed as PBAPE intermediate with exposed quinoline nitrogen by measuring retention time at 50 uM measured for 30 mins by HPLC analysis", "format": "ADME", "details": "buffer, pH 7.4, 0.5 h"}, "[6]": {"tested_on": "MDA-MB-231", "assay": "Induction of apoptosis in human MDA-MB-231 cells assessed as viable cells incubated for 24 hrs by Annexin V-FITC/PI staining based flow cytometry (reference value: 92.06 %)", "format": "functional"}, "[7]": {"tested_on": "MCF-10A", "assay": "Cytotoxicity against human MCF-10A cells exposed to UV incubated for 48 hrs by MTT assay", "format": "toxicity, cell-based"}, "[8]": {"tested_on": "MDA-MB-231", "assay": "Inhibition of mitochondrial membrane potential in human MDA-MB-231 cells incubated for 24 hrs in presence of UV by JC-1 dye based analysis (reference value: 5.51 %)", "format": "functional"}, "[9]": {"tested_on": "MDA-MB-231", "assay": "Cytotoxicity against human MDA-MB-231 cells incubated for 48 hrs in presence of UV by MTT assay", "format": "functional, cell-based"}, "[10]": {"assay": "Prodrug conversion in PBS at pH 7.4 exposed to UV assessed as 8-HQ release by measuring retention time at 50 uM measured for 30 mins by HPLC analysis", "format": "ADME", "details": "buffer, pH 7.4, 0.5 h"}, "[11]": {"assay": "Prodrug conversion in PBS at pH 7.4 exposed to UV assessed as 8-Hydroxy-1-(4-(4,4,5,5-tetramethyl-1,3,2-dioxaborolan-2-yl)benzyl)quinolin-1-ium bromide metabolite formation by measuring retention time at 50 uM measured for 30 mins by HPLC analysis", "format": "ADME", "details": "buffer, pH 7.4, 0.5 h"}, "[12]": {"tested_on": "MDA-MB-231", "assay": "Induction of apoptosis in human MDA-MB-231 cells assessed as early apoptotic cells incubated for 24 hrs in presence of UV by Annexin V-FITC/PI staining based flow cytometry (reference value: 1.94 %)", "format": "functional"}, "[13]": {"tested_on": "MDA-MB-231", "assay": "Induction of cell cycle arrest in human MDA-MB-231 cells assessed as accumulation at G0/G1 phase in presence of UV by PI staining based flow cytometry (reference value: 43.25 %)", "format": "functional"}, "[14]": {"tested_on": "MDA-MB-231", "assay": "Induction of apoptosis in human MDA-MB-231 cells assessed as late apoptotic cells incubated for 24 hrs in presence of UV by Annexin V-FITC/PI staining based flow cytometry (reference value: 2.4 %)", "format": "functional"}, "[15]": {"tested_on": "MDA-MB-231", "assay": "Cytotoxicity against human MDA-MB-231 cells incubated for 48 hrs in absence of UV by MTT assay", "format": "functional, cell-based"}, "[16]": {"tested_on": "MDA-MB-231", "assay": "Induction of apoptosis in human MDA-MB-231 cells assessed as viable cells incubated for 24 hrs in presence of UV by Annexin V-FITC/PI staining based flow cytometry (reference value: 92.06 %)", "format": "functional"}, "[17]": {"tested_on": "MDA-MB-231", "assay": "Induction of apoptosis in human MDA-MB-231 cells assessed as necrotic cells incubated for 24 hrs in presence of UV by Annexin V-FITC/PI staining based flow cytometry (reference value: 3.6 %)", "format": "functional"}, "[18]": {"tested_on": "MDA-MB-231", "assay": "Induction of apoptosis in human MDA-MB-231 cells assessed as necrotic cells incubated for 24 hrs by Annexin V-FITC/PI staining based flow cytometry (reference value: 3.6 %)", "format": "functional"}, "[19]": {"assay": "Hepatorenal toxicity in ICR mouse assessed as change in BUN level at 30 mg/kg, iv measured after 48 hrs", "format": "organism-based", "details": "in vivo"}, "[20]": {"tested_on": "MDA-MB-231", "assay": "Inhibition of mitochondrial membrane potential in human MDA-MB-231 cells incubated for 24 hrs by JC-1 dye based analysis (reference value: 5.51 %)", "format": "functional"}, "[21]": {"assay": "Hepatorenal toxicity in ICR mouse assessed as change in serum creatinine level at 30 mg/kg, iv measured after 48 hrs", "format": "organism-based", "details": "in vivo"}, "[22]": {"tested_on": "MDA-MB-231", "assay": "Induction of apoptosis in human MDA-MB-231 cells assessed as late apoptotic cells incubated for 24 hrs by Annexin V-FITC/PI staining based flow cytometry (reference value: 2.4 %)", "format": "functional"}},
  "note": "Active and inactive are the calls of the source. No cut-off for these calls is given here.",
  "data": [
    {"smiles": "Br.CC1(C)OB(c2ccc(C[n+]3cccc4cccc(OCc5ccccc5[N+](=O)[O-])c43)cc2)OC1(C)C", "values": [
      {"measurement": "Activity", "setting": "[1]", "result": 8.03, "unit": "%"},
      {"measurement": "Activity", "setting": "[2]", "result": "Non-toxic"},
      {"measurement": "Activity", "setting": "[3]", "result": "Non-toxic"},
      {"measurement": "Activity", "setting": "[4]", "result": 45.12, "unit": "%"},
      {"measurement": "Retention_time", "setting": "[5]", "result": 14.8, "unit": "min"},
      {"measurement": "Activity", "setting": "[6]", "result": 80.18, "unit": "%"},
      {"measurement": "Activity", "setting": "[7]", "result": "Non-toxic"},
      {"measurement": "inhibition (INH)", "setting": "[8]", "result": 62.81, "unit": "%"},
      {"measurement": "Activity", "setting": "[9]", "result": "Dose-dependent-effect"},
      {"measurement": "Retention_time", "setting": "[10]", "result": 3.6, "unit": "min"},
      {"measurement": "Retention_time", "setting": "[11]", "result": 16.4, "unit": "min"},
      {"measurement": "Activity", "setting": "[12]", "result": 23.32, "unit": "%"},
      {"measurement": "Activity", "setting": "[13]", "result": 58.23, "unit": "%"},
      {"measurement": "Activity", "setting": "[14]", "result": 19.66, "unit": "%"},
      {"measurement": "Activity", "setting": "[15]", "result": "inactive"},
      {"measurement": "Activity", "setting": "[16]", "result": 52.82, "unit": "%"},
      {"measurement": "Activity", "setting": "[17]", "result": 4.21, "unit": "%"},
      {"measurement": "Activity", "setting": "[18]", "result": 1.03, "unit": "%"},
      {"measurement": "Activity", "setting": "[19]", "result": "Non-toxic"},
      {"measurement": "inhibition (INH)", "setting": "[20]", "result": 15.85, "unit": "%"},
      {"measurement": "Activity", "setting": "[21]", "result": "Non-toxic"},
      {"measurement": "Activity", "setting": "[22]", "result": 10.76, "unit": "%"}
    ]}
  ]
}
